Data set [1] relates to BON human GI carcinoid cancer cells. As to the kind of experiment: MTT cell proliferation assay, GI carcinoid cells. It counts as cell-based. The source says: (§1) Cell Culture BON human GI carcinoid cancer cells, kindly provided by Drs. B. Mark Evers and Courtney M. Townsend, Jr. (University of Texas Medical Branch, Galveston, Tex., USA), and H727 human lung carcinoid cancer cells (American Type Tissue Collection, Manassas, Va., USA) were maintained as previously described (Sippel, R S et al., Raf-1 Activation Suppresses neuroendocrine marker and hormone levels in human gastrointestinal carcinoid cells. Am J Physiol Gastrointest Liver Physiol. 2003 August; 285(2):G245-54, Van Gompel J J et al., ZM336372, A Raf-1 Activator, Suppresses Growth and Neuroendocrine Hormone Levels in Carcinoid Tumor Cells. Mol Cancer Ther. 2005 June; 4(6):910-7)
(§2) Cell Proliferation Assay Carcinoid cancer cell proliferation was measured by the MTT (thiazolyl blue tetrazolium bromide; Sigma-Aldrich, St. Louis, Mo., USA) rapid calorimetric assay as previously described (Van Gompel J J et al., ZM336372, A Raf-1 Activator, Suppresses Growth and Neuroendocrine Hormone Levels in Carcinoid Tumor Cells. Mol Cancer Ther. 2005 June; 4(6):910-7). Briefly, cells were seeded in quadruplicate on 24-well plates and incubated for 24 hours to allow cell attachment. The cells were then treated with SBHA (Sigma-Aldrich) in concentrations of 0 to 50 μM and incubated for up to 6 days. The MTT assay was performed by replacing the standard medium with 250 μL of serum-free medium containing MTT (0.5 mg/mL) and incubated at 37° C. for 3 hours. After incubation, 750 μL of dimethyl sulfoxide (Sigma-Aldrich) was added to each well and mixed thoroughly. The plates were then measured at 540 nm using a spectrophotometer (μQuant; Bio-Tek Instruments, Winooski, Vt., USA).
Cell Culture BON human gastrointestinal (GI) carcinoid tumor cells, kindly provided by Drs. B. Mark Evers and Courtney M. Townsend, Jr. […]
(§3) Cell Proliferation Assay Carcinoid tumor cell proliferation was measured by the MTT (methylthiazolyldiphenyl-tetrazolium bromide; Sigma-Aldrich, St. Louis, Mo.) rapid colorimetric assay as previously described (Van Gompel J J et al., ZM336372, A Raf-1 Activator, Suppresses Growth and Neuroendocrine Hormone Levels in Carcinoid Tumor Cells. Mol Cancer Ther 2005; 4:910-917). […] The plates were then measured at 540 nm using a spectrophotometer (μQuant; Bio-Tek Instruments, Winooski, Vt.).
(Formazan colour is commonly taken as a measure of viable cells.)

For data set [2], the system named is H727 human lung carcinoid cancer cells. As to the kind of experiment: MTT cell proliferation assay, pulmonary carcinoid cells. It counts as cell-based. The note with it: VPA 0 to 4 mM, up to 6 days.
Description: as §1
as §2, with “After incubation, 750 μL of dimethyl sulfoxide (Sigma-Aldrich) was added to each well and mixed thoroughly.” left out, “USA). […]” for “USA).”
as §3

For the next data set, the system named is BON GI carcinoid cells. Kind of data set: Flow cytometry cell cycle analysis. Format: cell-based, human. The settings on record: VPA. The method, then:
Flow Cytometry GI carcinoid cells treated with or without VPA were labeled for 1 hour with 10 μM bromodeoxyuridine (Sigma-Aldrich) and counter-stained with 50 μg/ml propidium iodide and analyzed by two-dimensional flow cytometry (FACSCalibur flow cytometer; BD Biosciences) to detect both fluorescein and propidium iodide as previously described (Hirai, H. et al., Involvement of cell cycle progression in survival signaling through CD40 in the B-lymphocyte line WEHI-231. Cell Death Differ 2004; 11:261-269). Results were analyzed with FlowJo software (Tree Star, Ashland, Oreg.).
On the technique in general: In flow cytometry, cells or beads pass a laser one at a time.

The test system of the next data set is ASCL1 promoter. Kind of data set: ASCL1 promoter luciferase reporter assay. It counts as cell-based, human. The note with it: GI carcinoid cells, VPA 48 hours. (Reporter assays use an easily measured gene product as a stand-in for the process of interest.)
Data set [3] is described as follows: Serum VPA level in xenograft mice. It counts as in vivo. The note with it: nude athymic NU/NU, mouse, ip, two hours after i.p. injection, last day, 366 mg/kg, read-out: median serum VPA level. How it is done: After confirming that VPA activates Notch1 signaling and suppresses carcinoid cell growth in vitro, we were interested in testing its efficacy in vivo. Subcutaneous human GI carcinoid tumors were developed in immunocompromised mice, which were then given daily intraperitoneal injections of VPA, and the tumors were measured every 4 days for 20 days. The tumors of the saline-treated control mice grew at a higher rate than did those of the VPA-treated animals (FIG. 28A). Indeed, the growth of the tumors in the treatment group was almost static. On the last day of the experiment, blood was drawn from each animal in the treatment group two hours after intraperitoneal injection of VPA.

Usually inhibition stands for the relative decrease from the control value, in per cent.

Molecules are shown by their SMILES.

On to `CCCC(CCC)C(=O)O` [VPA, 2-propylpentanoic acid], for which the inhibition at 1000 µM in data set [1] (Homo sapiens, 144 h, 1 mM, 6 days of treatment, read-out: growth inhibition relative to untreated cells) amounted to 50%. Further, the cell growth result is listed as “profound dose-dependent inhibition of growth” in data set [1] (VPA 0 to 4 mM, up to 6 days) and “Statistically significant growth inhibition” in data set [2]. The “cells in the S phase” value in the data set on BON GI carcinoid cells is reported as “decrease”. The “percentage of cells in the G1 phase” value in the data set with BON GI carcinoid cells is recorded as “dose-dependent increase”. For the same molecule, the “decrease in ASCL1 promoter luciferase activity” value in the data set on ASCL1 promoter is reported as roughly 4 fold. Also, in data set [3], the concentration at 2 h was 46000 ng/mL.

The values are drawn from patent publication US8338482B2, “Modulating notch1 signaling pathway for treating neuroendocrine tumors” (Wisconsin Alumni Research Foundation, priority 2007, dated 2012).
